According to patent publication US20050171037A1, “Therapeutic combinations” (Agouron Pharmaceuticals, Inc., priority 2004, published 2005):
Read-outs that look alike come from different tables or passages of the source.

Columns and labels:
[1] = Compound B pharmacokinetics after oral administration of a single dose alone (fasting) and with ritonavir (fed), human subjects; type: in vivo; conditions: geometric mean
[2] = as above; type: in vivo; conditions: for half-life / Cmax / AUC / Tmax: plasma; for half-life / Ae % (drug recovered unchanged in urine, percent of administered dose): arithmetic mean; for half-life: read-out: t1/2 (terminal phase plasma half-life) (converted); for AUC: read-out: AUC (area under the concentration-time curve from time 0 to infinity); for Tmax: median
Experimental: Nos. 11/008325, filed Dec. 8, 2004, and 60/591,351, filed Jul. 26, 2004, all of which are hereby incorporated by reference for this purpose. A total of 21 human subjects were administered a single 300 mg, 900 mg, 1800 mg, or 3600 mg dose of a spray-dried composition comprising 90 wt % amorphous Compound B and 10 wt % hydroxypropyl methyl cellulose acetate succinate (HPMCAS) under fasting conditions. […] Each plasma sample was analyzed for the presence of Compound B and the following pharmacokinetic parameters for Compound B were determined for each subject: area under the concentration-time curve from time 0 extrapolated to infinity (AUC), maximum observed plasma concentration (Cmax), time to first occurrence of Cmax (Tmax), terminal phase plasma half-life (t %), CL/F=apparent oral clearance, and cumulative amount of drug recovered unchanged in the urine expressed as a percentage of administered dose (Ae %).

[3] = po, 300 mg, single oral dose 300 mg (active dose 270 mg), alone, fasting
[4] = po, 300 mg, single oral dose 300 mg (active dose 270 mg), alone, fasting, geometric mean
[5] = po, 900 mg, single oral dose 900 mg (active dose 810 mg), alone, fasting
[6] = po, 900 mg, single oral dose 900 mg (active dose 810 mg), alone, fasting, geometric mean
[7] = po, 1800 mg, single oral dose 1800 mg (active dose 1620 mg), alone, fasting
[8] = po, 1800 mg, single oral dose 1800 mg (active dose 1620 mg), alone, fasting, geometric mean
[9] = po, 3600 mg, single oral dose 3600 mg (active dose 3240 mg), alone, fasting
[10] = po, 3600 mg, single oral dose 3600 mg (active dose 3240 mg), alone, fasting, geometric mean
[11] = po, single oral dose 300 mg (active 270 mg) + ritonavir (100 mg every 12 hours for 3 doses), fed
[12] = po, single oral dose 450 mg (active 405 mg) + ritonavir (100 mg every 12 hours for 3 doses), fed

- Cmax ([1]; plasma, po, single oral dose 300 mg (active 270 mg) + ritonavir (100 mg every 12 hours for 3 doses)): 3100 ng/mL
- CL/F (apparent oral clearance) ([1]; single oral dose 300 mg (active 270 mg) + ritonavir (100 mg every 12 hours for 3 doses)): 7.75 L/h
- CL/F (apparent oral clearance) ([1]; single oral dose 450 mg (active 405 mg) + ritonavir (100 mg every 12 hours for 3 doses)): 7.84 L/h
- half-life [2, 3]: 2.76 h
- Cmax [2, 4]: 1530 ng/mL
- AUC [2, 4]: 6110 ng·h/mL
- Tmax [2, 3]: 0.5 h
- half-life [2, 5]: 3.25 h
- Cmax [2, 6]: 4610 ng/mL
- AUC [2, 6]: 28200 ng·h/mL
- Tmax [2, 5]: 2 h
- half-life [2, 7]: 3.6 h
- Cmax [2, 8]: 8670 ng/mL
- AUC [2, 8]: 74500 ng·h/mL
- Tmax [2, 7]: 3.02 h
- half-life [2, 9]: 4.15 h
- Cmax [2, 10]: 14500 ng/mL
- AUC [2, 10]: 164000 ng·h/mL
- Tmax [2, 9]: 4 h
- half-life [2, 11]: 8.54 h
- Tmax [2, 11]: 4 h
- half-life [2, 12]: 10.3 h
- Cmax ([2]; po, single oral dose 450 mg (active 405 mg) + ritonavir (100 mg every 12 hours for 3 doses), fed, geometric mean): 3830 ng/mL
- Tmax [2, 12]: 4.02 h
- AUC ([2]; single oral dose 300 mg (active 270 mg) + ritonavir (100 mg every 12 hours for 3 doses), fed, geometric mean): 34800 ng·h/mL
- CL/F (apparent oral clearance) ([2]; single oral dose 300 mg (active dose 270 mg), alone, fasting, geometric mean): 44.2 L/h
- AUC (area under the concentration-time curve from time 0 to infinity) ([2]; single oral dose 450 mg (active 405 mg) + ritonavir (100 mg every 12 hours for 3 doses), fed, geometric mean): 51600 ng·h/mL
- CL/F (apparent oral clearance) ([2]; single oral dose 900 mg (active dose 810 mg), alone, fasting, geometric mean): 28.7 L/h
- CL/F (apparent oral clearance) ([2]; single oral dose 1800 mg (active dose 1620 mg), alone, fasting, geometric mean): 21.7 L/h
- CL/F (apparent oral clearance) ([2]; single oral dose 3600 mg (active dose 3240 mg), alone, fasting, geometric mean): 19.7 L/h
Structure (SMILES): Cc1c(O)cccc1C(=O)N[C@@H](Cc1ccccc1)[C@H](O)C(=O)N1CC(F)(F)C(C)(C)[C@H]1C(=O)NCC(F)(F)F [Compound B, 4,4-difluoro-1-{(2S,3S)-2-hydroxy-3-[(3-hydroxy-2-methylbenzoyl)amino]-4-phenylbutanoyl}-3,3-dimethyl-N-(2,2,2-trifluoroethyl)-L-prolinamide]
- Ae % (drug recovered unchanged in urine, percent of administered dose) ([2]; single oral dose 300 mg (active 270 mg) + ritonavir (100 mg every 12 hours for 3 doses), fed): 17.7%
- Ae % (drug recovered unchanged in urine, percent of administered dose) ([2]; single oral dose 300 mg (active dose 270 mg), alone, fasting): 3.67%
- Ae % (drug recovered unchanged in urine, percent of administered dose) ([2]; single oral dose 450 mg (active 405 mg) + ritonavir (100 mg every 12 hours for 3 doses), fed): 17.6%
- Ae % (drug recovered unchanged in urine, percent of administered dose) ([2]; single oral dose 900 mg (active dose 810 mg), alone, fasting): 4.89%
- Ae % (drug recovered unchanged in urine, percent of administered dose) ([2]; single oral dose 1800 mg (active dose 1620 mg), alone, fasting): 10.4%
- Ae % (drug recovered unchanged in urine, percent of administered dose) ([2]; single oral dose 3600 mg (active dose 3240 mg), alone, fasting): 11.8%
